Laboratory results: patent EP0326331B1, “Substituted quinolines and cinnolines” (Dow AgroSciences LLC, priority 1988, dated 1989)

Experiments:
Format in all cases: in vivo
[1] = system: Pseudoperonospora cubensis (downy mildew); test: Test 1 greenhouse foliar spray screen, downy mildew on squash; settings: Pseudoperonospora cubensis, foliar, Test 1, foliar spray on squash; disease control rating at 400 ppm / 100 ppm; read-out: DOWN MDEW
[2] = system: melon aphids (Aphis gossypii Glover); test: Mite/insect screen, MA; settings: Aphis gossypii, foliar, percent mortality, foliar spray on squash, read-out: MA RESULTS %; for mortality at 200 ppm: rate 200 ppm; for mortality at 400 ppm: rate 400 ppm
Method in brief: (§1)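 First, each compound was dissolved in an emulsifier-containing acetone/alcohol mixture and diluted with water. Next, leaves were sprayed until runoff and left to dry for an hour. For southern armyworm, two excised uninfested leaves went into a Petri dish with larvae; percent mortality followed standard exposure periods.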

[3] = system: Erysiphe graminis tritici (powdery mildew); test: Test 1 greenhouse foliar spray screen, powdery mildew on wheat; settings: Blumeria graminis, foliar, Test 1, foliar spray on wheat; disease control rating at 400 ppm / 100 ppm; read-out: POWD MDEW
[4] = system: Pyricularia oryzae (rice blast); test: whole plant or invertebrate; settings: Pyricularia oryzae, foliar, read-out: RICE BLAST, Test 1, foliar spray on rice; disease control rating at 400 ppm / 100 ppm
[5] = system: Twospotted spider mites (Tetranychus urticae Koch); test: Mite/insect screen, SM; settings: Tetranychus urticae, foliar, percent mortality, foliar spray on squash, read-out: SM RESULTS %; for mortality at 200 ppm: rate 200 ppm; for mortality at 400 ppm: rate 400 ppm
Method in brief: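 Read-out: percent mortality after standard exposure periods. Test solutions were water dilutions of compound dissolved in acetone/alcohol (50:50) with emulsifier blends; leaves were sprayed to runoff on both surfaces and air-dried for one hour before exposure.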

[6] = system: Puccinia recondita tritici (leaf rust); test: Test 1 greenhouse foliar spray screen, leaf rust on wheat; settings: Puccinia recondita, foliar, Test 1, foliar spray on wheat; disease control rating at 400 ppm / 100 ppm
[7] = system: Botrytis cinerea (gray mold); test: Test 1 greenhouse foliar spray screen, gray mold on grape berries; settings: Botrytis cinerea, foliar; Test 1, spray on grape berries; disease control rating at 400 ppm / 100 ppm
[8] = system: corn rootworm; test: Mite/insect screen, CRW; settings: percent mortality, read-out: CRW RESULTS %; for mortality at 12 ppm: CRW rate 12.00 ppm; for mortality at 24 ppm: CRW rate 24.00 ppm
Method in brief: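 Stock in acetone:alcohol 1:1 + TOXIMUL R 23 g/L + TOXIMUL S 13 g/L; diluted with water to indicated concentrations; mortality (%) after standard exposure.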

[9] = system: southern armyworm (Spodopetra eridania Cramer); test: Mite/insect screen, SAW; settings: Spodoptera eridania, foliar, percent mortality, foliar spray on squash, read-out: SAW RESULTS %; for mortality at 200 ppm: rate 200 ppm; for mortality at 400 ppm: rate 400 ppm
Method in brief: as §1

SMILES	pest or weed control at 400 ppm [1] [%]	mortality at 200 ppm [2] [%]	mortality at 400 ppm [2] [%]	pest or weed control at 400 ppm [3] [%]	pest or weed control at 400 ppm [4] [%]	mortality at 200 ppm [5] [%]	mortality at 400 ppm [5] [%]	pest or weed control at 400 ppm [6] [%]	pest or weed control at 400 ppm [7] [%]	mortality at 12 ppm [8] [%]	mortality at 24 ppm [8] [%]	mortality at 200 ppm [9] [%]	mortality at 400 ppm [9] [%]
CC(CCOc1ccnc2c(F)cccc12)CC(C)(C)C (stereo not shown) [Example 274, 8-fluoro-4-(3,5,5-trimethylhexyloxy)quinoline]	20 to 89	100	100	90 to 100	90 to 100	100	0	90 to 100	0 to 19	0	0	0	0
Fc1ccc(CCOc2ccnc3c(F)cccc23)c(F)c1 [Example 275, 8-fluoro-4-[2-(2,4-difluorophenyl)ethoxy]quinoline]	90 to 100	90	100	90 to 100	90 to 100	0	60	90 to 100	0 to 19	0	0	0	0
Fc1ccc(CCOc2ccnc3cc(Cl)ccc23)c(F)c1 [Example 276, 7-chloro-4-[2-(2,4-difluorophenyl)ethoxy]quinoline]	0 to 19	0	80	90 to 100	0 to 19	0	60	20 to 89	0 to 19	0	0	0	0
CCOc1ccc(CCOc2ccnc3cc(Cl)cc(Cl)c23)cc1 [Example 277, 5,7-dichloro-4-[2-(4-ethoxyphenyl)ethoxy]quinoline]	0 to 19	–	0	90 to 100	0 to 19	–	0	0 to 19	0 to 19	–	0	–	0
CCCCOc1ccc(CCOc2ccnc3c(F)cccc23)cc1 [Example 278, 4-[2-(4-butoxyphenyl)ethoxy]-8-fluoroquinoline]	90 to 100	90	0	90 to 100	90 to 100	60	0	90 to 100	0 to 19	0	0	0	100
CCOc1ccc2nc(C)cc(OCCCOCc3ccccc3)c2c1 [Example 279, 6-ethoxy-2-methyl-4-[3-(phenylmethoxy)propoxy]quinoline]	90 to 100	0	80	0 to 19	90 to 100	0	0	90 to 100	0 to 19	0	0	0	0
Clc1cccc2c(NCCc3cccc(Oc4ccccc4)c3)ccnc12 [Example 280, 8-chloro-N-[2-(3-phenoxyphenyl)ethyl]-4-quinolinamine]	90 to 100	0	0	90 to 100	90 to 100	0	0	90 to 100	0 to 19	0	0	60	0
Clc1cccc2c(NCCCCc3ccccc3)ccnc12 [Example 281, 8-chloro-N-(4-phenylbutyl)-4-quinolinamine]	90 to 100	0	0	20 to 89	90 to 100	0	0	20 to 89	0 to 19	0	0	0	0
Fc1cccc2c(OCCCc3ccc(Oc4ccccc4)cc3)ccnc12 [Example 282, 8-fluoro-4-[3-(4-phenoxyphenyl)propoxy]quinoline]	0 to 19	0	0	0 to 19	20 to 89	0	0	0 to 19	0 to 19	0	0	0	0
CC(CNc1ccnc2cc(Cl)ccc12)c1ccc(Cl)cc1 (stereo not shown) [Example 283, 7-chloro-N-[2-(4-chlorophenyl)propyl]-4-quinolinamine]	90 to 100	80	0	20 to 89	20 to 89	0	80	90 to 100	0 to 19	0	0	0	0
Fc1cccc2c(OCCCC(Br)CBr)ccnc12 (stereo not shown) [Example 284, 4-[(4,5-dibromopentyl)oxy]-8-fluoroquinoline]	20 to 89	0	0	0 to 19	90 to 100	0	0	90 to 100	0 to 19	0	0	0	0
Fc1cccc2c(OCCCCCCCCOc3ccccc3)ccnc12 [Example 285, 8-fluoro-4-[(8-phenoxyoctyl)oxy]quinoline]	0 to 19	80	0	0 to 19	0 to 19	40	0	0 to 19	0 to 19	0	0	0	0
Cc1cc(OCCc2ccc(C(C)(C)C)cc2)c2cc(Cl)ccc2n1 [Example 286, 6-chloro-2-methyl-4-[2-[4-(t-butyl)phenyl]ethoxy]quinoline]	0 to 19	0	0	20 to 89	0 to 19	0	0	20 to 89	0 to 19	0	0	0	0
Fc1cccc2c(OCCCCCCOc3ccccc3)ccnc12 [Example 287, 8-fluoro-4-[(6-phenoxyhexyl)oxy]quinoline]	90 to 100	80	0	0 to 19	0 to 19	0	0	20 to 89	0 to 19	0	0	0	0
